Measurements published in patent publication US8637038B2, “Methods for inhibiting allograft rejection” (Rigel Pharmaceuticals, Inc., priority 2011, dated 2014).
Read-outs that look alike come from different tables or passages of the source.

How the values were obtained:
JAK1/3 = assay: IL-2 T cell phospho-STAT5; assay type: cell-based; conditions: Homo sapiens
Description: The activity of Compound III and Compound I was assessed in a panel of cell-based assays. Compound III and Compound I are selective inhibitors of JAK1/3-dependent signaling. Data for a non-selective JAK inhibitor (Compound IV) is shown for reference. Mixed lymphocyte reactions (MLRs) were performed by incubating freshly prepared naive human peripheral blood lymphocytes from one donor with CD80+/CD86+ mature Dendritic Cells derived from a different donor for 5 days. The percentage of CD3+/CD71+ (anti-CD3-APC, Clone HIT3a, anti-CD 71-FITC, Clone M-A712; BD Biosciences, San Jose, Calif.) proliferating cells was assessed by fluorescence-activated cell sorting (FACS; BD Bioscience). Interleukin-2 (IL-2)-dependent human primary T cell proliferation was assessed using CellTiter-Glo® Luminescent Cell Viability Assay (Promega, Madison, Wis.). STAT phosphorylation induced by different cytokines in human primary T cells was measured by intracellular FACS analysis (anti-pY694-STAT5 AlexaFluor488, anti-pY701-STAT1 AlexaFluor488, and anti-pY693-STAT4 AlexaFluor488; BD Biosciences). STAT phosphorylation induced by different cytokines was performed in whole blood after red blood cell lysis (Lyse/Fix buffer, BD Biosciences) and methanol permeabilization. Interferon-γ (IFN-γ) signaling was assessed in the U937 monocytic cell line by measuring ICAM-1 surface expression by FACS (ICAM-1-APC, BD Bioscience).

VEGFR2 = target: T1, VEGFR2 (Homo sapiens, UniProt P35968); assay: VEGF HUVEC phospho-VEGFR2; assay type: cell-based
T1 construct: endogenous in cells; host or cells: HUVEC (human umbilical vein endothelial cells)
T1 sequence (P35968 20-1356): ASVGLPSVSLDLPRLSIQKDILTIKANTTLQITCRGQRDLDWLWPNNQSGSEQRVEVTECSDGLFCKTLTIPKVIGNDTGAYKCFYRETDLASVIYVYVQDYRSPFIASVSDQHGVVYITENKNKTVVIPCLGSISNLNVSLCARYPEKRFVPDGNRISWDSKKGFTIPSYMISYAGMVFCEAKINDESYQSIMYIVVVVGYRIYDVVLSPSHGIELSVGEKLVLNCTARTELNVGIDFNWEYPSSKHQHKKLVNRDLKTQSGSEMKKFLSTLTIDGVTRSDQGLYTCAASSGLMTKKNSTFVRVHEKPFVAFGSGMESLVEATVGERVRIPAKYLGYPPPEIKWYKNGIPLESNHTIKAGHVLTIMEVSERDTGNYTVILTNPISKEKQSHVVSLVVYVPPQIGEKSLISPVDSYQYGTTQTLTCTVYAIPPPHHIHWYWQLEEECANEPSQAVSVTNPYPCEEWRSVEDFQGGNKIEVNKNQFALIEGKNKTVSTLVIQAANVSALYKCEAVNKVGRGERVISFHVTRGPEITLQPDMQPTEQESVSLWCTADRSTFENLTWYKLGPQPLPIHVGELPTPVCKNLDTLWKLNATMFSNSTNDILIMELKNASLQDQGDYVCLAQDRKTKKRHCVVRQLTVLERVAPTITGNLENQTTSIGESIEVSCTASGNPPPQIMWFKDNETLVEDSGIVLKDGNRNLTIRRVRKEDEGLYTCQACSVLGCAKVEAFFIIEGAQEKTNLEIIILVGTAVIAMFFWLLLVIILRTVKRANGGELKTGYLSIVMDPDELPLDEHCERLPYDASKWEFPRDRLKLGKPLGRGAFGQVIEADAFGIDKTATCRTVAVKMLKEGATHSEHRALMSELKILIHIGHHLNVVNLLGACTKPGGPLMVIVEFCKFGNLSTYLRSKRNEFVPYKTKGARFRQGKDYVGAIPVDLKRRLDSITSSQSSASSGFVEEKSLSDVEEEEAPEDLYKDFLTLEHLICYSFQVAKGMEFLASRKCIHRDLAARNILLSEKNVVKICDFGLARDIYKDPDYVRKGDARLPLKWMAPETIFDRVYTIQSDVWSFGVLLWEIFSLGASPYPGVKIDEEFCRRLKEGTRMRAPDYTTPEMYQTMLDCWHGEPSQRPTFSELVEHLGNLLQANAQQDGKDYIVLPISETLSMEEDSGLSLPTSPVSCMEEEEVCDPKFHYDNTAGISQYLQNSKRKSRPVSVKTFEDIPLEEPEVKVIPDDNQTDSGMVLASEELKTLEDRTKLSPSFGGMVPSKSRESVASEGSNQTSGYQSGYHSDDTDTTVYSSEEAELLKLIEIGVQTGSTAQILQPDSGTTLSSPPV
Description: (§1) Growth factor-dependent protein phosphorylation was detected in HeLa cells by staining permeabilized cells with phospho-specific antibodies and quantified by chemiluminescence (Luminator, Wallac Multilabel Counter; Perkin Elmer). Akt phosphorylation was measured following insulin stimulation and EGFR phosphorylation was measured following EGF stimulation (Phospho-AKT, Cell signaling technology, Danvers, Mass.; 1 μM Insulin, Millipore, Billerica, Mass.; Phospho-EGFR, tyr1173, clone 53A3, Cell Signaling Technology; 200 ng/ml recombinant human EGF, PeproTech, Hamburg, Germany). Human umbilical vein endothelial cells (HUVECs) were stimulated with VEGF and VEGFR2 phosphorylation was assessed by ELISA (100 ng/ml VEGF165, R&D Systems; Rabbit anti-phospho-VEGFR2 mAb, Cell Signaling Technology).

INSR = assay: Insulin HeLa phospho-Akt; assay type: cell-based; conditions: upstream kinase INSR
Description: as §1

EGFR = target: T2, EGFR (Homo sapiens, UniProt P00533); assay: EGF HeLa phospho-EGFR; assay type: cell-based
T2 construct: Growth factor-dependent protein phosphorylation was detected in HeLa cells; endogenous in cells; host or cells: HeLa
T2 sequence (P00533 25-1210): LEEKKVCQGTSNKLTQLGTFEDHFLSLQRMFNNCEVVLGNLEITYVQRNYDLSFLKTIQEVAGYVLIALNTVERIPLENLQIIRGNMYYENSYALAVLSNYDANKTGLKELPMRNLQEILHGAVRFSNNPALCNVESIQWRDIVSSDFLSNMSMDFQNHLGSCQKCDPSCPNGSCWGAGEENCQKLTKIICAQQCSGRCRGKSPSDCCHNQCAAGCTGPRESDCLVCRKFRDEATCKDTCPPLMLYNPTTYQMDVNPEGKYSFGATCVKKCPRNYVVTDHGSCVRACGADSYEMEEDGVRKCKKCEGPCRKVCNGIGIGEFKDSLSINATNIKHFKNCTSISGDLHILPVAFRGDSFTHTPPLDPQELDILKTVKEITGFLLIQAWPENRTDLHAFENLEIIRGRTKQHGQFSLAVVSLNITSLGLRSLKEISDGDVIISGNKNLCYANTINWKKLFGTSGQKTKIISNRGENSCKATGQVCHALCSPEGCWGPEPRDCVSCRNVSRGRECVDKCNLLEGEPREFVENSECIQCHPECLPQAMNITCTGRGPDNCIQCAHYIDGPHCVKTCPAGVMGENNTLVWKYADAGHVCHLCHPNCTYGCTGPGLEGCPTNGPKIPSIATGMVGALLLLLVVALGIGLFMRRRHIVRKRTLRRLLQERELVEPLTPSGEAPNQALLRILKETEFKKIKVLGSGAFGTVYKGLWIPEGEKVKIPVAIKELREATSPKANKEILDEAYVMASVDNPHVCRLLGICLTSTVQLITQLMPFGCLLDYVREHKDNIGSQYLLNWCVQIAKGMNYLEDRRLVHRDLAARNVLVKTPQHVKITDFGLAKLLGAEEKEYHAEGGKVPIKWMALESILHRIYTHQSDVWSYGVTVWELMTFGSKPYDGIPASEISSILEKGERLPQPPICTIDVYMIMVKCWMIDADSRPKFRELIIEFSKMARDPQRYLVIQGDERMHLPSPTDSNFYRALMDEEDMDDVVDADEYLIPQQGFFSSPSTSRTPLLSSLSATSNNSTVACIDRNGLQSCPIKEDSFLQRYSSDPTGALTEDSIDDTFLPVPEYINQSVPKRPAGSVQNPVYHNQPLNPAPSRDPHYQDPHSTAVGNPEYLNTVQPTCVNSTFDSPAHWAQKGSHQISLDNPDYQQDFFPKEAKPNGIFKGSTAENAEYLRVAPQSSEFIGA
Description: as §1

[1] = system: Lew recipients of heterotopic BN heart transplants; assay: Five-day heart allograft study: CD3+/CD68+ immunohistochemistry; assay type: in vivo, rat; conditions: for CD68+ cell infiltration compared to Tac HD group / CD68+ cells compared to no medication group: HD groups, five days, p<0.001; for CD68+ and CD3+ cell infiltration compared to Tac LD group: LD groups (Compound I 15 mg/kg BID, Compound III 5 mg/kg BID), p<0.05
Excerpt: Male Brown Norway (BN) and Lewis (Lew) rats weighing 350 g were purchased from Harlan (Indianapolis, Ind.) and were housed under conventional conditions. All animals were fed standard rat chow and water ad libitum and received humane care in compliance with the Principles of Laboratory Animal Care formulated by the National Society for Medical Research and the Guide for the care and Use of Laboratory Animals published by the National Institutes of Health (National Institutes of Health publication No. 85-23, revised 1985). Allogeneic (BN-to-Lew) and syngeneic (Lew-to-Lew) heterotopic heart transplantations were performed as described previously (Ono et al., J. Thorac. Cardiovasc. Surg. 57:225-229, 1969). In brief, rats were anaesthetized using 2% isoflurane. The donor received an intravenous bolus of 500 I.U. heparin. Cardiac arrest was achieved using 20 ml Bretschneider solution (Custodiol, Dr. F. Koehler Chemie, Bensheim, Germany). […] Heart-beating score was assessed directly after transplantation for each animal from score 0 (no palpable contraction) to 4 (strong and regular contraction). Only animals with beating scores of 4 were included into the study.
(§2) Compound I and Compound III were provided by Rigel (South San Francisco, Calif.) and Tacrolimus was provided by Astellas (Munich, Germany). All drugs were administrated orally each in two different concentrations: Compound I LD (15 mg/kg BID; n=6) and HD (60 mg/kg BID; n=6); Compound III LD (5 mg/kg BID; n=6) and HD (20 mg/kg BID; n=6); Tac LD (1 mg/kg QD; n=6) and HD (4 mg/kg QD; n=6). Administration of all drugs was performed every day at the same time points. Tacrolimus was applied only once a day (QD) every 24 hours. During administration of Compound I (BID) and Compound III (BID) a 12 hour pause was kept in between each drug application.
(§3) Lew recipients of heterotopic BN heart transplants were randomly assigned to their group. Animals were either left untreated (groups 1 and 2; see Table 1,5-day study) or received their group specific medication (groups 3-8; see Table 1,5-day study) by oral application. An untreated syngeneic transplant group Lew-Lew was generated as control.
Paraffin-embedded tissue sections were deparaffinized and rehydrated. Sections were incubated with protein blocking solution (ZytoChem Plus (AP) Polymer Kit; Zytomed Systems GmbH, Berlin, Germany) to prevent background staining. After antigen retrieval, specific antibodies against rat CD68 and CD3 (Serotec, Raleigh, N.C.) were applied to identify macrophages and lymphocytes, respectively, and visualized via alkaline phosphatase and new fuchsin substrate reaction (Zytomed System GmbH; Dako, Carpinteria, Calif.). Sections were counterstained by H+E (Waldeck). After overnight incubation with primary antibody solution and subsequent washing, enhancement reagent (ZytoChem) was applied, followed by enzymatic reaction of alkaline phosphatase induced by New Fuchsin Substrate System (Dako).
Inflammatory cell densities within the myocardium were assessed with the Leica QWin software (Leica Microsystems GmbH, Wetzlar, Germany) and expressed as cells/high-power field (HPF). Histological analyses of all stainings were done by a pathologist.

[2] = system: Lew recipients of heterotopic BN heart transplants; assay: Five-day heart allograft study: ELISPOT (IFN-γ, IL-4, IL-17) of recipient splenocytes; assay type: in vivo, rat; conditions: for IFN-γ spot frequency (ELISPOT) compared to no medication group: LD groups (Compound I 15 mg/kg BID, Compound III 5 mg/kg BID, Tac 1 mg/kg QD), five days; for suppression of IFN-γ response to donor-specific antigens compared to Tac LD treatment: LD groups
Description: as §2, §3
Lymphocytes were isolated from freshly harvested spleens. ELISPOT assays with 1×10^7/ml mitomycin-inhibited BN splenocytes and 1×10^6/ml Lew splenocytes were performed according to the manufacturer's protocol (BD Biosciences). 96-well plates were coated with IFN-γ, IL-17, and IL-4 to assess T helper cell (Th)1-, Th17-, and Th2-responses independently. All assays were performed in quadruplicates. Spots were automatically enumerated using an ELISPOT plate reader (CTL, Cincinnati, Ohio) for scanning and analyzing.

[3] = read-out: EC50, JAK1/3-dependent Stat5 phosphorylation in response to IL-2

In the case of `COc1cc(Nc2ncc(C)c(Nc3ccc4oc(=O)[nH]c4c3)n2)cc(C)c1F` [Compound I, 5-(2-(4-fluoro-3-methoxy-5-methylphenylamino)-5-methylpyrimidin-4-ylamino)benzo[d]oxazol-2(3H)-one], the EC50 (JAK1/3; [3]) is reported as 0.021 µM, the EC50 (JAK1/3; upstream kinases JAK1/3, read-out: IL-2 T cell phospho-STAT5 EC50) is reported as 0.021 ± 0.009 µM and the EC50 (VEGFR2) is reported as 17.8 ± 3.87 µM. The “Insulin HeLa phospho-Akt EC50” value (INSR) was “Inactive”, the “EGF HeLa phospho-EGFR EC50” value (EGFR) was “Inactive” and the “CD68+ cell infiltration compared to Tac HD group” value [1] was “significantly less”. The “CD68+ cells compared to no medication group” value [1] was “significantly reduced”, the “CD68+ and CD3+ cell infiltration compared to Tac LD group” value [1] was “less CD68+ and CD3+ cell infiltration” and the “IL-17 cytokine release (ELISPOT) compared to no medication group” value ([2]; HD 60 mg/kg BID, p<0.010) was “significantly suppressed”. For the same compound, the “IL-17 cytokine release (ELISPOT) compared to no medication group” value ([2]; LD 15 mg/kg BID, p<0.001) was “significantly suppressed”, the “IL-17 spot frequency compared to Tac LD” value ([2]; LD 15 mg/kg BID, p<0.001) was “significantly less spot frequency” and the “IFN-γ spot frequency (ELISPOT) compared to no medication group” value [2] was “significantly reduced”. For the same compound, the “suppression of IFN-γ response to donor-specific antigens compared to Tac LD treatment” value ([2]; p<0.001) was “significantly better results”.

`COc1cc(Nc2ncc(C)c(Nc3ccc4oc(=O)[nH]c4c3)n2)cc(C)c1C` [Compound III, 5-(2-(3-methoxy-4,5-dimethylphenylamino)-5-methylpyrimidin-4-ylamino)benzol[d]oxazol-2-(3H)-one] was tested, and the EC50 (JAK1/3; [3]) was 0.035 µM, the EC50 (JAK1/3; read-out: IL-2 T cell phospho-STAT5 EC50) was 0.035 ± 0.015 µM and the EC50 (VEGFR2) was 29.3 ± 14.3 µM. For the same compound, the “Insulin HeLa phospho-Akt EC50” value (INSR) was “Inactive”, the “EGF HeLa phospho-EGFR EC50” value (EGFR) was “Inactive” and the “CD68+ cell infiltration compared to Tac HD group” value [1] was “significantly less”. The “CD68+ cells compared to no medication group” value [1] was “significantly reduced”, the “CD68+ and CD3+ cell infiltration compared to Tac LD group” value [1] was “less CD68+ and CD3+ cell infiltration” and the “IFN-γ spot frequency compared to Tac HD group” value ([2]; Compound III LD 5 mg/kg BID, p<0.05) was “less IFN-γ spot frequency”. The “IFN-γ spot frequency (ELISPOT) compared to no medication group” value [2] was “significantly reduced” and the “suppression of IFN-γ response to donor-specific antigens compared to Tac LD treatment” value ([2]; p<0.001) was “significantly better results”.
